Experimental data from article PMC10945555, “Improving Activity of New Arylurea Agents against Multidrug-Resistant and Biofilm-Producing Staphylococcus epidermidis” (ACS Medicinal Chemistry Letters, 2024).
Values after ≈ are worked out from the molar mass of the structure shown. Where two headings read alike, the source gives them in different places.

Tested on: clinical Staphylococcus epidermidis strains
Assay: Minimal bactericidal concentration (MBC), MBC/MIC
Type: cell-based
Settings: for MBC: Staphylococcus epidermidis
Protocol: 2.5 Evaluation of bacteriostatic/bactericidal properties […]
determining MBC (Minimal Bactericidal Concentration) values. The study was conducted in accordance with the guidelines of the Clinical and Laboratory Standards Institute (CLSI).13 The MBC value was assumed to be the concentration of the compound inhibiting the growth of strains in 99.9%. Then, the value of the MBC/MIC ratio was calculated to assess its bactericidal or bacteriostatic activity. […]

## O=C(Nc1cccc(Cl)c1)NC1CCN(CCC(Oc2ccc(C(F)(F)F)cc2)c2cccs2)CC1 (stereo not drawn) [Compound 25]
81 clinical strains (Table S5), read-out: Average of MBC
  MBC: 29.2 µg/mL (≈ 54.2 µM)
Clinical strain 1 (Table S5), read-out: MBC
  MBC: 25 µg/mL (≈ 46.5 µM)
Clinical strain 2 (Table S5), read-out: MBC
  MBC: 25 µg/mL (≈ 46.5 µM)
Clinical strain 3 (Table S5), read-out: MBC
  MBC: 12.5 µg/mL (≈ 23.2 µM)
Clinical strain 4 (Table S5), read-out: MBC
  MBC: 25 µg/mL (≈ 46.5 µM)
Clinical strain 5 (Table S5), read-out: MBC
  MBC: 50 µg/mL (≈ 92.9 µM)
Clinical strain 6 (Table S5), read-out: MBC
  MBC: 25 µg/mL (≈ 46.5 µM)
Clinical strain 7 (Table S5), read-out: MBC
  MBC: 25 µg/mL (≈ 46.5 µM)
Clinical strain 8 (Table S5), read-out: MBC
  MBC: 12.5 µg/mL (≈ 23.2 µM)
Clinical strain 9 (Table S5), read-out: MBC
  MBC: 50 µg/mL (≈ 92.9 µM)
Clinical strain 10 (Table S5), read-out: MBC
  MBC: 50 µg/mL (≈ 92.9 µM)
Clinical strain 11 (Table S5), read-out: MBC
  MBC: 25 µg/mL (≈ 46.5 µM)
Clinical strain 12 (Table S5), read-out: MBC
  MBC: 25 µg/mL (≈ 46.5 µM)
Clinical strain 13 (Table S5), read-out: MBC
  MBC: 25 µg/mL (≈ 46.5 µM)
Clinical strain 14 (Table S5), read-out: MBC
  MBC: 25 µg/mL (≈ 46.5 µM)
Clinical strain 15 (Table S5), read-out: MBC
  MBC: 50 µg/mL (≈ 92.9 µM)
Clinical strain 16 (Table S5), read-out: MBC
  MBC: 25 µg/mL (≈ 46.5 µM)
Clinical strain 17 (Table S5), read-out: MBC
  MBC: 1.6 µg/mL (≈ 2.97 µM)
Clinical strain 18 (Table S5), read-out: MBC
  MBC: 50 µg/mL (≈ 92.9 µM)
Clinical strain 19 (Table S5), read-out: MBC
  MBC: 12.5 µg/mL (≈ 23.2 µM)
Clinical strain 20 (Table S5), read-out: MBC
  MBC: 25 µg/mL (≈ 46.5 µM)
Clinical strain 21 (Table S5), read-out: MBC
  MBC: 25 µg/mL (≈ 46.5 µM)
Clinical strain 22 (Table S5), read-out: MBC
  MBC: 12.5 µg/mL (≈ 23.2 µM)
Clinical strain 23 (Table S5), read-out: MBC
  MBC: 25 µg/mL (≈ 46.5 µM)
Clinical strain 24 (Table S5), read-out: MBC
  MBC: 25 µg/mL (≈ 46.5 µM)
Clinical strain 25 (Table S5), read-out: MBC
  MBC: 12.5 µg/mL (≈ 23.2 µM)
Clinical strain 26 (Table S5), read-out: MBC
  MBC: 50 µg/mL (≈ 92.9 µM)
Clinical strain 27 (Table S5), read-out: MBC
  MBC: 50 µg/mL (≈ 92.9 µM)
Clinical strain 28 (Table S5), read-out: MBC
  MBC: 12.5 µg/mL (≈ 23.2 µM)
Clinical strain 29 (Table S5), read-out: MBC
  MBC: 6.25 µg/mL (≈ 11.6 µM)
Clinical strain 30 (Table S5), read-out: MBC
  MBC: 12.5 µg/mL (≈ 23.2 µM)
Clinical strain 31 (Table S5), read-out: MBC
  MBC: 25 µg/mL (≈ 46.5 µM)
Clinical strain 32 (Table S5), read-out: MBC
  MBC: 25 µg/mL (≈ 46.5 µM)
Clinical strain 33 (Table S5), read-out: MBC
  MBC: 25 µg/mL (≈ 46.5 µM)
Clinical strain 34 (Table S5), read-out: MBC
  MBC: 25 µg/mL (≈ 46.5 µM)
Clinical strain 35 (Table S5), read-out: MBC
  MBC: 25 µg/mL (≈ 46.5 µM)
Clinical strain 36 (Table S5), read-out: MBC
  MBC: 25 µg/mL (≈ 46.5 µM)
Clinical strain 37 (Table S5), read-out: MBC
  MBC: 25 µg/mL (≈ 46.5 µM)
Clinical strain 38 (Table S5), read-out: MBC
  MBC: 25 µg/mL (≈ 46.5 µM)
Clinical strain 39 (Table S5), read-out: MBC
  MBC: 12.5 µg/mL (≈ 23.2 µM)
Clinical strain 40 (Table S5), read-out: MBC
  MBC: 12.5 µg/mL (≈ 23.2 µM)
Clinical strain 41 (Table S5), read-out: MBC
  MBC: 25 µg/mL (≈ 46.5 µM)
Clinical strain 42 (Table S5), read-out: MBC
  MBC: 12.5 µg/mL (≈ 23.2 µM)
Clinical strain 43 (Table S5), read-out: MBC
  MBC: 25 µg/mL (≈ 46.5 µM)
Clinical strain 44 (Table S5), read-out: MBC
  MBC: 25 µg/mL (≈ 46.5 µM)
Clinical strain 45 (Table S5), read-out: MBC
  MBC: 25 µg/mL (≈ 46.5 µM)
Clinical strain 46 (Table S5), read-out: MBC
  MBC: 12.5 µg/mL (≈ 23.2 µM)
Clinical strain 47 (Table S5), read-out: MBC
  MBC: 25 µg/mL (≈ 46.5 µM)
Clinical strain 48 (Table S5), read-out: MBC
  MBC: 25 µg/mL (≈ 46.5 µM)
Clinical strain 49 (Table S5), read-out: MBC
  MBC: 1.6 µg/mL (≈ 2.97 µM)
Clinical strain 50 (Table S5), read-out: MBC
  MBC: 50 µg/mL (≈ 92.9 µM)
Clinical strain 51 (Table S5), read-out: MBC
  MBC: 50 µg/mL (≈ 92.9 µM)
Clinical strain 52 (Table S5), read-out: MBC
  MBC: 50 µg/mL (≈ 92.9 µM)
Clinical strain 53 (Table S5), read-out: MBC
  MBC: 50 µg/mL (≈ 92.9 µM)
Clinical strain 54 (Table S5), read-out: MBC
  MBC: 12.5 µg/mL (≈ 23.2 µM)
Clinical strain 55 (Table S5), read-out: MBC
  MBC: 50 µg/mL (≈ 92.9 µM)
Clinical strain 56 (Table S5), read-out: MBC
  MBC: 25 µg/mL (≈ 46.5 µM)
Clinical strain 57 (Table S5), read-out: MBC
  MBC: 50 µg/mL (≈ 92.9 µM)
Clinical strain 58 (Table S5), read-out: MBC
  MBC: 12.5 µg/mL (≈ 23.2 µM)
Clinical strain 59 (Table S5), read-out: MBC
  MBC: 50 µg/mL (≈ 92.9 µM)
Clinical strain 60 (Table S5), read-out: MBC
  MBC: 50 µg/mL (≈ 92.9 µM)
Clinical strain 61 (Table S5), read-out: MBC
  MBC: 25 µg/mL (≈ 46.5 µM)
Clinical strain 62 (Table S5), read-out: MBC
  MBC: 25 µg/mL (≈ 46.5 µM)
Clinical strain 63 (Table S5), read-out: MBC
  MBC: 25 µg/mL (≈ 46.5 µM)
Clinical strain 64 (Table S5), read-out: MBC
  MBC: 50 µg/mL (≈ 92.9 µM)
Clinical strain 65 (Table S5), read-out: MBC
  MBC: 50 µg/mL (≈ 92.9 µM)
Clinical strain 66 (Table S5), read-out: MBC
  MBC: 25 µg/mL (≈ 46.5 µM)
Clinical strain 67 (Table S5), read-out: MBC
  MBC: 50 µg/mL (≈ 92.9 µM)
Clinical strain 68 (Table S5), read-out: MBC
  MBC: 50 µg/mL (≈ 92.9 µM)
Clinical strain 69 (Table S5), read-out: MBC
  MBC: 25 µg/mL (≈ 46.5 µM)
Clinical strain 70 (Table S5), read-out: MBC
  MBC: 50 µg/mL (≈ 92.9 µM)
Clinical strain 71 (Table S5), read-out: MBC
  MBC: 25 µg/mL (≈ 46.5 µM)
Clinical strain 72 (Table S5), read-out: MBC
  MBC: 50 µg/mL (≈ 92.9 µM)
Clinical strain 73 (Table S5), read-out: MBC
  MBC: 6.25 µg/mL (≈ 11.6 µM)
Clinical strain 74 (Table S5), read-out: MBC
  MBC: 50 µg/mL (≈ 92.9 µM)
Clinical strain 75 (Table S5), read-out: MBC
  MBC: 50 µg/mL (≈ 92.9 µM)
Clinical strain 76 (Table S5), read-out: MBC
  MBC: 25 µg/mL (≈ 46.5 µM)
Clinical strain 77 (Table S5), read-out: MBC
  MBC: 50 µg/mL (≈ 92.9 µM)
Clinical strain 78 (Table S5), read-out: MBC
  MBC: 25 µg/mL (≈ 46.5 µM)
Clinical strain 79 (Table S5), read-out: MBC
  MBC: 6.25 µg/mL (≈ 11.6 µM)
Clinical strain 80 (Table S5), read-out: MBC
  MBC: 50 µg/mL (≈ 92.9 µM)
Clinical strain 81 (Table S5), read-out: MBC
  MBC: 3.12 µg/mL (≈ 5.81 µM)
read-out: Mean MBC
  MBC: 29.2 µg/mL (≈ 54.2 µM)
Clinical S. epidermidis strains
  MBC/MIC ratio: 16
Clinical strain 1 (Table S5)
  MBC/MIC: 16
Clinical strain 2 (Table S5)
  MBC/MIC: 16
Clinical strain 3 (Table S5)
  MBC/MIC: 16
Clinical strain 4 (Table S5)
  MBC/MIC: 16
Clinical strain 5 (Table S5)
  MBC/MIC: 16
Clinical strain 6 (Table S5)
  MBC/MIC: 16
Clinical strain 7 (Table S5)
  MBC/MIC: 16
Clinical strain 8 (Table S5)
  MBC/MIC: 16
Clinical strain 9 (Table S5)
  MBC/MIC: 16
Clinical strain 10 (Table S5)
  MBC/MIC: 16
Clinical strain 11 (Table S5)
  MBC/MIC: 16
Clinical strain 12 (Table S5)
  MBC/MIC: 16
Clinical strain 13 (Table S5)
  MBC/MIC: 16
Clinical strain 14 (Table S5)
  MBC/MIC: 16
Clinical strain 15 (Table S5)
  MBC/MIC: 16
Clinical strain 16 (Table S5)
  MBC/MIC: 16
Clinical strain 17 (Table S5)
  MBC/MIC: 16
Clinical strain 18 (Table S5)
  MBC/MIC: 16
Clinical strain 19 (Table S5)
  MBC/MIC: 16
Clinical strain 20 (Table S5)
  MBC/MIC: 16
Clinical strain 21 (Table S5)
  MBC/MIC: 16
Clinical strain 22 (Table S5)
  MBC/MIC: 16
Clinical strain 23 (Table S5)
  MBC/MIC: 16
Clinical strain 24 (Table S5)
  MBC/MIC: 16
Clinical strain 25 (Table S5)
  MBC/MIC: 16
Clinical strain 26 (Table S5)
  MBC/MIC: 16
Clinical strain 27 (Table S5)
  MBC/MIC: 16
Clinical strain 28 (Table S5)
  MBC/MIC: 16
Clinical strain 29 (Table S5)
  MBC/MIC: 16
Clinical strain 30 (Table S5)
  MBC/MIC: 16
Clinical strain 31 (Table S5)
  MBC/MIC: 16
Clinical strain 32 (Table S5)
  MBC/MIC: 16
Clinical strain 33 (Table S5)
  MBC/MIC: 16
Clinical strain 34 (Table S5)
  MBC/MIC: 16
Clinical strain 35 (Table S5)
  MBC/MIC: 16
Clinical strain 36 (Table S5)
  MBC/MIC: 16
Clinical strain 37 (Table S5)
  MBC/MIC: 16
Clinical strain 38 (Table S5)
  MBC/MIC: 16
Clinical strain 39 (Table S5)
  MBC/MIC: 16
Clinical strain 40 (Table S5)
  MBC/MIC: 16
Clinical strain 41 (Table S5)
  MBC/MIC: 16
Clinical strain 42 (Table S5)
  MBC/MIC: 16
Clinical strain 43 (Table S5)
  MBC/MIC: 16
Clinical strain 44 (Table S5)
  MBC/MIC: 16
Clinical strain 45 (Table S5)
  MBC/MIC: 16
Clinical strain 46 (Table S5)
  MBC/MIC: 16
Clinical strain 47 (Table S5)
  MBC/MIC: 16
Clinical strain 48 (Table S5)
  MBC/MIC: 16
Clinical strain 49 (Table S5)
  MBC/MIC: 16
Clinical strain 50 (Table S5)
  MBC/MIC: 16
Clinical strain 51 (Table S5)
  MBC/MIC: 16
Clinical strain 52 (Table S5)
  MBC/MIC: 16
Clinical strain 53 (Table S5)
  MBC/MIC: 16
Clinical strain 54 (Table S5)
  MBC/MIC: 16
Clinical strain 55 (Table S5)
  MBC/MIC: 16
Clinical strain 56 (Table S5)
  MBC/MIC: 16
Clinical strain 57 (Table S5)
  MBC/MIC: 16
Clinical strain 58 (Table S5)
  MBC/MIC: 16
Clinical strain 59 (Table S5)
  MBC/MIC: 16
Clinical strain 60 (Table S5)
  MBC/MIC: 16
Clinical strain 61 (Table S5)
  MBC/MIC: 16
Clinical strain 62 (Table S5)
  MBC/MIC: 16
Clinical strain 63 (Table S5)
  MBC/MIC: 16
Clinical strain 64 (Table S5)
  MBC/MIC: 16
Clinical strain 65 (Table S5)
  MBC/MIC: 16
Clinical strain 66 (Table S5)
  MBC/MIC: 16
Clinical strain 67 (Table S5)
  MBC/MIC: 16
Clinical strain 68 (Table S5)
  MBC/MIC: 16
Clinical strain 69 (Table S5)
  MBC/MIC: 16
Clinical strain 70 (Table S5)
  MBC/MIC: 16
Clinical strain 71 (Table S5)
  MBC/MIC: 16
Clinical strain 72 (Table S5)
  MBC/MIC: 16
Clinical strain 73 (Table S5)
  MBC/MIC: 16
Clinical strain 74 (Table S5)
  MBC/MIC: 16
Clinical strain 75 (Table S5)
  MBC/MIC: 16
Clinical strain 76 (Table S5)
  MBC/MIC: 16
Clinical strain 77 (Table S5)
  MBC/MIC: 16
Clinical strain 78 (Table S5)
  MBC/MIC: 16
Clinical strain 79 (Table S5)
  MBC/MIC: 16
Clinical strain 80 (Table S5)
  MBC/MIC: 16
Clinical strain 81 (Table S5)
  MBC/MIC: 16
